{
  "source": "patent US6288110A",
  "about": "“Pharmaceutical compositions comprising disulfiram” (Yeda Research and Development Co Ltd., priority 1998, dated 2001)",
  "key": {"[1]": {"tested_on": "neoplasia of the forestomach", "settings": "benzo(a)pyrene, mice; cited from earlier work"}, "cisplatin nephrotoxicity": {"tested_on": "cisplatin nephrotoxicity", "settings": "humans; cited from earlier work"}, "BALB/MK keratinocytes [2]": {"tested_on": "BALB/MK keratinocytes", "assay": "Apoptosis by FACS in BALB/MK keratinocytes", "format": "cell-based, murine", "settings": "4 μM (not shown)", "procedure": "Cells were cultured in plastic tissue culture dishes for 48 hours in presence of growth media as described above, until reaching 40-50% confluency. Disulfiram was then added to the cells for 20 hours. The cells were removed from the plates by EDTA-trypsin and fixed in ice-cold 70% ethanol (BioLab, Israel) in -20° C. for 2 hr to overnight. The fixed cells (2-5×10^6) were washed once with HEPES-buffered saline (HBSS) and incubated with 0.5 mg/ml RNAseH (Boehringer Mannheim). Afterwards the cells were resuspended in HBSS containing 50 μg/ml propidium iodide (Sigma) and subsequently analyzed on a FACSort flow cytometer (Beckton Dickinson Inc.) using Lysis II software. For the analysis, 10,000 cells were examined from each sample. The percentage of the hypodiploid cells was measured (Darzynkiewicz, 1992; Afanasyev, 1993). The cell cycle histogram was divided into four regions according to the cell cycle phases: Ap, apoptotic cells; G1, diploid cells; S, intermediate cells; and G2 /M, tetraploid cells."}, "BALB/MK keratinocytes [3]": {"tested_on": "BALB/MK keratinocytes", "assay": "DNA synthesis (3H-thymidine incorporation) in BALB/MK keratinocytes", "format": "cell-based, murine", "settings": "for IC (maximal): Mus musculus, Keratinocyte", "procedure": "The BALB/MK epidermal keratinocyte cell line, kindly provided by Dr. S Aaronson (National Cancer Institute, Bethesda, Md., USA), was cultured (37° C., 10% CO2 humidified atmosphere) in calcium-free MEM (Beth Haemek, Israel) supplemented with 10% dialyzed FCS and murine EGF (5 ng/ml).\nBovine capillary endothelial cells (BCE) and bovine aortic BSMC were plated in 24-well plates (6000 cells per well) in 500 μl DMEM medium supplemented with 10% Colorado calf serum (CCS) (GIBCO, USA) and GPS. After 24 hours, medium was changed to starvation medium (2% CCS, 0.5% BSA, GPS) for 24 hours. ^3 H-methyl-thymidine (5 μCi/ml) was added for the last 6 hours. DNA synthesis assays were performed as described above, in triplicates. DNA synthesis assays in BALB/MK keratinocytes were performed as previously described (Marikovsky, 1995).-DNA synthesis assays were performed in triplicates.\nDisulfiram was prepared in 0.1 mM stock solutions in DMSO. Control samples were incubated with the appropriate concentration of DMSO. Inhibition was calculated as percentage of DNA synthesis of control.\nTo determine whether disulfiram acts directly on endothelial cells rather than on accessory cells such as macrophages and mast cells that can be responsible for the development of an angiogenic response in vivo, the effect of the drug on the growth of BCE cells was examined in vitro as described in section (c) of \"Materials and Methods\" above. DNA synthesis in BCE cells was measured in presence of increasing concentrations of disulfiram incubated for 24 hours with the cells. […] Maximal inhibitory activity (80%) for BSMC was at 0.5-1 μM disulfiram, while maximal inhibitory activity for C6 glioma cells or BALB/MK keratinocytes was at concentrations 10 fold higher (2-3 μM) than those for endothelial cells (0.2-0.5 μM).\nTo examine the time course of the effect of disulfiram and whether the effect was reversible, cells were incubated with disulfiram for various periods of time (1, 2, 4 and 24 hours), then washed away and DNA synthesis was determined. One to 4 hours of exposure to disulfiram were enough to induce maximal inhibitory effect at concentrations ranging from 0.5 μM for BCE cells (FIG. 3A) to 5 μM for BALB/MK keratinocytes (FIG. 3C) and C6 glioma cells (FIG. 3D). […] BSMC were less sensitive as far as time course is concerned when incubated with 1 μM disulfiram. Following 4 hours of incubation with 1 μM disulfiram, DNA synthesis inhibition in BSMC reached only 50% (FIG. 3B). The data shown here indicate that the damage for capillary endothelial cells, following a short incubation of 1 to 2 hours, was maximal and that, at least in a time scale of 24 hours, this damage was non-reversible."}, "[4]": {"tested_on": "Lewis lung carcinoma (D122) metastasis in the lungs", "assay": "Lewis lung carcinoma metastasis, footpad model", "format": "in vivo, C57/BL mice", "from_the_text": "The Lewis lung carcinoma (3LL), which originated spontaneously in a C57/BL/6J (H-2^b) mouse, is a malignant tumor that produces spontaneous lung metastases. The metastatic clone D122, kindly provided by Prof. Lea Eisenbach (Weizmann Institute of Science, Rehovot, Israel), was used herein for tissue culture and for in vivo experiments. The cell cultures were maintained in DMEM supplemented with 10% heat-inactivated FCS, glutamine, antibiotics, sodium pyruvate and nonessential amino acids.\nTwo metastasis models were used: 1. The footpad model. 2. The i.v. model. The assay of tumor development in the footpad model and evaluation of lung metastases was done as previously described (Eisenbach, 1983). Briefly, eight mice in each experimental group were inoculated with 2×10^5 D122 cells in 0.05 ml PBS in the right hind footpad. Three days following tumor cells injection, mice were treated per os by disulfiram or saline 3 times per week. The tumors became palpable within 11-19 days. Local tumor growth was determined by measuring the footpad diameter with a calipers. At 26-40 days following inoculation, when local tumor reached a diameter of 6-7 mm, mice were anesthetized with a single dose of 75 mg/kg ketamine+3 mg/kg xylazine (i.p.) and the tumor-bearing leg was removed by amputation above the knee joint. To measure progress of metatases the mice were killed 24 days following amputation by injecting 20 mg/mouse xylazine i.p. and lungs were weighed.\nTwenty-four days following the removal of the tumor-bearing leg, lungs were weighed."}},
  "note": "Like-named read-outs stand apart in the source and are kept apart here.",
  "data": [
    {"smiles": "CCN(CC)C(=S)SSC(=S)N(CC)CC", "note": "[disulfiram, Bis(diethylthiocarbamoyl) disulfide]", "values": [
      {"measurement": "interference with neoplasia of the forestomach", "setting": "[1]", "result": "interfere with induction of cancer"},
      {"measurement": "protection against cisplatin nephrotoxicity", "setting": "cisplatin nephrotoxicity", "result": "did not show any protection"},
      {"measurement": "apoptosis by FACS", "setting": "BALB/MK keratinocytes [2]", "result": "did not exhibit induction of apoptosis"},
      {"measurement": "maximal inhibitory concentration relative to endothelial cells, fold higher", "setting": "BALB/MK keratinocytes [3]; BALB/MK vs endothelial cells (0.2-0.5 μM)", "result": 10, "unit": "fold"},
      {"measurement": "persistence of inhibitory effect after short exposure", "setting": "BALB/MK keratinocytes [3]; MK, 24 hours following short exposure", "result": "inhibitory effect seemed to be maintained"},
      {"measurement": "IC (maximal)", "setting": "BALB/MK keratinocytes [3]; BALB/MK keratinocytes, read-out: concentration of maximal inhibitory activity (DNA synthesis)", "result": "2 to 3", "unit": "µM"},
      {"measurement": "IC (maximal)", "setting": "BALB/MK keratinocytes [3]; BALB/MK, 1 to 4 hours of exposure, washed, read-out: concentration inducing maximal inhibitory effect on DNA synthesis, short exposure", "result": 5, "unit": "µM"},
      {"measurement": "metastasis on the lungs compared with water-fed control (in words)", "setting": "[4]; 30 μg, 3 times a week, 24 days, n=6, p=0.005", "result": "significantly smaller"},
      {"measurement": "lowering of the metastatic load in the lungs", "setting": "[4]; 30 μg/mouse, 24 days following removal of tumor-bearing leg", "result": "~10", "unit": "fold"},
      {"measurement": "decrease in the metastatic load in the lungs (in words)", "setting": "[4]; 120 μg/mouse (not shown)", "result": "only slight decrease"},
      {"measurement": "deaths of disulfiram-treated mice", "setting": "[4]; by 24th day following leg removal, control 50% died", "result": "no disulfiram-treated mice died"},
      {"measurement": "mice with no metastases at all", "setting": "[4]; disulfiram-treated group", "result": "two out of six"}
    ]}
  ]
}
